Test [1] has as its target T1, Coagulation factor X (Homo sapiens, UniProt P00742). Put plainly: Tested for inhibitory against Coagulation factor Xa at a concentration of 3.9 uM.
The target of test [2] is T1, Coagulation factor X. In words: Inhibition of Coagulation factor Xa.
The target in test [3] is Vitamin K-dependent protein C (Homo sapiens, UniProt P04070). Put plainly: Tested for inhibitory activity against Activated protein C.
Test [4] addresses T1, Coagulation factor X. In words: Tested for inhibitory activity against Coagulation factor Xa.
The target in test [5] is Plasminogen (Homo sapiens, UniProt P00747). Put plainly: Tested for inhibitory activity against plasmin.
Sequence of Plasminogen (P00747 97-580 limits assumed): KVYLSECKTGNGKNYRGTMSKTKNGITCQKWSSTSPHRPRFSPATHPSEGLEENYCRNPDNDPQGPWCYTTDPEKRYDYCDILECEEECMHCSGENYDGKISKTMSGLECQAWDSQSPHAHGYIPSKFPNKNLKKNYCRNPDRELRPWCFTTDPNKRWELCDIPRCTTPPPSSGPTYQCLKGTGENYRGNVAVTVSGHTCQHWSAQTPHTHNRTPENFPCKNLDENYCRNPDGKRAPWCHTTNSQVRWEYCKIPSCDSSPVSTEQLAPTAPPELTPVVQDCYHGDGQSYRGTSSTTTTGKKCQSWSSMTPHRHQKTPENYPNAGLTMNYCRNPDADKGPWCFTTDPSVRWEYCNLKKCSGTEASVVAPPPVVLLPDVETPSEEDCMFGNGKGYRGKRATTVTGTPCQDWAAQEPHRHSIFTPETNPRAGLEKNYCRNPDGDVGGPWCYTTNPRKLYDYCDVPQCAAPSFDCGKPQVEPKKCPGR
Sequence of Plasminogen (P00747 581-810 limits assumed): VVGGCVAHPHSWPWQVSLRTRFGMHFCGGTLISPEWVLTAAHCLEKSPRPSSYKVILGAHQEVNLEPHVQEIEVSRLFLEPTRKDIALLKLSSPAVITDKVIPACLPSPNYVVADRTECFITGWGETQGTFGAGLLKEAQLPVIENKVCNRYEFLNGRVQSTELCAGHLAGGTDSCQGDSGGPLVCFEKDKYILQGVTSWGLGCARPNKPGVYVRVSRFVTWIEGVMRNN
The target in test [6] is Tissue-type plasminogen activator (Homo sapiens, UniProt P00750). In words: Tested for inhibitory activity against Tissue plasminogen activator.
Sequence of Tissue-type plasminogen activator (P00750 whole entry): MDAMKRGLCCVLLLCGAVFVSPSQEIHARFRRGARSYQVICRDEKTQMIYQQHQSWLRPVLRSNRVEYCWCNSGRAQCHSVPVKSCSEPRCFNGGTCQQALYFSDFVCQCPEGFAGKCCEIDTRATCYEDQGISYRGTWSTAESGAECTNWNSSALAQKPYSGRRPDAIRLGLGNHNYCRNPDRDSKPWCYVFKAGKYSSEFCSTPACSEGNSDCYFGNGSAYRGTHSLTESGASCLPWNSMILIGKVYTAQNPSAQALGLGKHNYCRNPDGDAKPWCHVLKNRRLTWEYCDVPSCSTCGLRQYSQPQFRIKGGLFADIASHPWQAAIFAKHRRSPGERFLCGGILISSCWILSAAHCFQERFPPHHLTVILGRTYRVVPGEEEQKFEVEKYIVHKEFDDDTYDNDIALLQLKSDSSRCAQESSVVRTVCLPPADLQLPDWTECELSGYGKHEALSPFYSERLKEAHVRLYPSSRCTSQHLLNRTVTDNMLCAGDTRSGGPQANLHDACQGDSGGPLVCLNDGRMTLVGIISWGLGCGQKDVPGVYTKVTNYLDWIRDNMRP
The target in test [7] is Serine protease 1 (Homo sapiens, UniProt P07477). In words: Tested for inhibitory activity against trypsin.
Sequence of Serine protease 1 (P07477 whole entry): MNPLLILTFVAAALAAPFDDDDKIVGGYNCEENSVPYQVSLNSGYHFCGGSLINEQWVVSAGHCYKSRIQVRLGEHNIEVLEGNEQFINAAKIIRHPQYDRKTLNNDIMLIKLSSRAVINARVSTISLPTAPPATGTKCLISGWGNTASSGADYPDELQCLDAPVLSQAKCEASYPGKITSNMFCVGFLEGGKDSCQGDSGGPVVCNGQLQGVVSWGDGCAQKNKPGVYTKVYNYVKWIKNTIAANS
In test [8] the target is Prothrombin (Homo sapiens, UniProt P00734). Put plainly: Tested for inhibitory activity against thrombin.

The record followed here is ChEMBL document CHEMBL1135247, “Benzimidazoles and isosteric compounds as potent and selective factor Xa inhibitors” (Bioorg Med Chem Lett, 2002).

Sequence of Vitamin K-dependent protein C (P04070 43-197 limits assumed): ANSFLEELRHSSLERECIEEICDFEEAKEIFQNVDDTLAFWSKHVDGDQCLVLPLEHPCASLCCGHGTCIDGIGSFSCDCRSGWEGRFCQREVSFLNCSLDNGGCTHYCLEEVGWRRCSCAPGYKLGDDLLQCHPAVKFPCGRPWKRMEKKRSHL
Sequence of Vitamin K-dependent protein C (P04070 212-461 limits assumed): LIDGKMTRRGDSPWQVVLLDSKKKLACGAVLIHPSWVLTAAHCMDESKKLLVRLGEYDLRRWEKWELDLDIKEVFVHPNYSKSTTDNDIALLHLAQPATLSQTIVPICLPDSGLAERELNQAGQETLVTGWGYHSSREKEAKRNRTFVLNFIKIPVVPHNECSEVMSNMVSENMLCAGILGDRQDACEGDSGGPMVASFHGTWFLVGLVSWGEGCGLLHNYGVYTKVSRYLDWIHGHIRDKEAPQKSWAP
T1 sequence (P00742 41-179 limits assumed): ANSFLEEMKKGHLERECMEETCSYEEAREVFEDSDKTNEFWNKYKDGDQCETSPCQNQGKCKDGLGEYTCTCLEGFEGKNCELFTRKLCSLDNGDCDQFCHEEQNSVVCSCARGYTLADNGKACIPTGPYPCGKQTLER
T1 sequence (P00742 235-488 limits assumed): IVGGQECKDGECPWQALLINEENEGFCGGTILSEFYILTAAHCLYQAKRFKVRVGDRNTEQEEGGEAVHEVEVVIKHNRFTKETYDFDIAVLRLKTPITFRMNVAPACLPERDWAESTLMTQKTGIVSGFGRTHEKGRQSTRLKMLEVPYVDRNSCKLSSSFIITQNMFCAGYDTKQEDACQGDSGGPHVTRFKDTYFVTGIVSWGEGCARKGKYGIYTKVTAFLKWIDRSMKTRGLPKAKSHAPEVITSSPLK

As to `N=C(N)c1cccc(CN2CCN(Cc3nc4cc(Cl)ccc4[nH]3)CC2=O)c1`, in test [1], the inhibition (in general, the percentage by which the read-out fell short of the control) was found to be 42%.

With `Nc1ncnc2cc(CN3CCN(Cc4cc5ccc(Cl)cc5[nH]4)CC3=O)ccc12`, the Ki (usually the dissociation constant of the complex between target and ligand, obtained from inhibition or displacement) in test [2] came out at 390 nM. The same measure, in the same setting: as for `Nc1ncnc2cc(CN3CCN(Cc4nc5cc(Cl)c(Cl)cc5[nH]4)CC3=O)ccc12`, the figure is greater than 1200 nM; as for `Cn1c(CN2CCN(Cc3ccc4c(N)ncnc4c3)C(=O)C2)nc2ccc(Cl)cc21`, 290 nM.

For the molecule `Nc1ncnc2cc(CN3CCN(Cc4nc5ccc(Cl)cc5[nH]4)CC3=O)ccc12`, the inhibition constant Ki is greater than 18000 nM in test [3]; 10 nM in test [2]; 42 nM in test [4]; greater than 7300 nM in test [5]; greater than 8700 nM in test [6]; greater than 2900 nM in test [7]. In test [8], this molecule came in with a Ki greater than 4000 nM. With `N=C(N)c1ccc(CN2CCN(Cc3nc4ccc(Cl)cc4[nH]3)CC2=O)cc1`, in test [2], the Ki was 40 nM. In the case of `Nc1ncnc2cc(CN3CCN(Cc4nc5cc(OC(F)(F)F)ccc5[nH]4)CC3=O)ccc12`, the Ki in test [2] was greater than 1200 nM.

The molecule `Nc1ncnc2cc(CN3CCN(Cc4nc5ccccc5[nH]4)CC3=O)ccc12` yielded a Ki in test [2] of 1200 nM.

As to `Nc1ncnc2cc(CN3CCN(Cc4nc5cc(Cl)ccc5o4)CC3=O)ccc12`, the affinity in test [2] corresponds to a Ki of 1200 nM. Take `Nc1ncnc2cc(CN3CCN(Cc4nc5ccc(Cl)cc5s4)CC3=O)ccc12`: in test [2], the Ki is greater than 1200 nM. As to `Nc1ncnc2cc(CN3CCN(Cc4cc5cc(Cl)ccc5[nH]4)CC3=O)ccc12`, the Ki in test [3] is greater than 18000 nM; in test [2] it was 24 nM; in test [5], greater than 7300 nM; in test [6] it was greater than 8700 nM; in test [7], greater than 2900 nM; in test [8] it was greater than 4000 nM.

With `Nc1ncnc2cc(CN3CCN(S(=O)(=O)c4nc5ccc(Cl)cc5[nH]4)CC3=O)ccc12`, the Ki is greater than 18000 nM in test [3]; 3 nM in test [2]; greater than 7300 nM in test [5]; greater than 8700 nM in test [6]; greater than 2900 nM in test [7]; greater than 4000 nM in test [8]. `Nc1ncnc2cc(CN3CCN(Cc4nc5ccc(Cl)cc5o4)CC3=O)ccc12` registered a Ki in test [2] greater than 1200 nM. In test [2], `Cc1ccc2nc(CN3CCN(Cc4ccc5c(N)ncnc5c4)C(=O)C3)[nH]c2c1` showed a Ki of 120 nM. As for `Nc1ncnc2cc(CN3CCN(Cc4nc5ccc(C(F)(F)F)cc5[nH]4)CC3=O)ccc12`, the Ki in test [2] is greater than 1200 nM. On the same count and under the same terms, as for `Nc1ncnc2cc(CN3CCN(Cc4nc5ccc(Br)cc5[nH]4)CC3=O)ccc12`, the figure is 17 nM; as for `N=C(N)c1cccc(CN2CCN(Cc3nc4ccc(Cl)cc4[nH]3)CC2=O)c1`, greater than 1200 nM; as for `Nc1ncnc2cc(CN3CCN(Cc4nc5cc(Cl)ccc5[nH]4)CC3)ccc12`, greater than 1200 nM.
